Experimental data published in US20070010671A1, “Novel quinazoline derivatives and methods of treatment related to the use thereof” (priority 2003, published 2007).

Molecular target: MCH receptor (Homo sapiens, UniProt Q99705)
Assay: High throughput functional screening FLIPR/FDSS6000: inhibition of MCH-evoked intracellular Ca2+ changes
Format: cell-based
Settings: class by percent of control at 10^−7 M or by IC50; read-out: class
Outline: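 Fluo4 fluorescence (Ex 488 nm, Em 530 nm) tracked MCH-evoked [Ca2+]i transients over 290 s by FLIPR or FDSS. Cells carried a constitutively active, non-endogenous receptor version. Compounds were added 3 min before a 50 nM MCH challenge.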

Row | IC50 [nM] | SMILES
1 | 50 to 200 | CN(C)c1nc(N[C@H]2CC[C@@H](C(=O)NCc3cccc(I)c3)CC2)nc2cc(F)c(F)cc12 [Example 1006, cis-4-{[4-(dimethylamino)-6,7-difluoroquinazolin-2-yl]amino}-N-(3-iodobenzyl)cyclohexanecarboxamide]
2 | < 50 | Cc1ccc([C@H](C)NC(=O)[C@H]2CC[C@@H](Nc3nc(N(C)C)c4cc(F)c(F)cc4n3)CC2)cc1 [Example 1007, cis-4-{[4-(dimethylamino)-6,7-difluoroquinazolin-2-yl]amino}-N-[(1S)-1-(4-methylphenyl)ethyl]cyclohexanecarboxamide]
3 | < 50 | CN(C)c1nc(N[C@H]2CC[C@@H](NC(=O)Nc3cccc(OC(F)(F)F)c3)CC2)nc2ccccc12 [Example 1009, N-(cis-4-{[4-(dimethylamino)quinazolin-2-yl]amino}cyclohexyl)-N′-[3-(trifluoromethoxy)phenyl]urea]
4 | 50 to 200 | CN(C)c1nc(N[C@H]2CC[C@@H](NC(=O)Nc3ccccc3Cl)CC2)nc2ccccc12 [Example 1011, N-(2-chlorophenyl)-N′-(cis-4-{[4-(dimethylamino)quinazolin-2-yl]amino}cyclohexyl)urea]
5 | > 200 | CN(C)c1nc(N[C@H]2CC[C@@H](NC(=O)Nc3c(Cl)cccc3Cl)CC2)nc2ccccc12 [Example 1012, N-(2,6-dichlorophenyl)-N′-(cis-4-{[4-(dimethylamino)quinazolin-2-yl]amino}cyclohexyl)urea]
6 | > 200 | CN(C)c1nc(N[C@H]2CC[C@@H](NC(=O)Nc3cccc(Cl)c3Cl)CC2)nc2ccccc12 [Example 1013, N-(2,3-dichlorophenyl)-N′-(cis-4-{[4-(dimethylamino)quinazolin-2-yl]amino}cyclohexyl)urea]
7 | 50 to 200 | CN(C)c1nc(N[C@H]2CC[C@@H](NC(=S)Nc3ccccc3Br)CC2)nc2ccccc12 [Example 1014, N-(2-bromophenyl)-N′-(cis-4-{[4-(dimethylamino)quinazolin-2-yl]amino}cyclohexyl)thiourea]
8 | 50 to 200 | COc1ccccc1NC(=O)NC[C@H]1CC[C@@H](Nc2nc(N(C)C)c3ccccc3n2)CC1 [Example 1015, N-[(cis-4-{[4-(dimethylamino)quinazolin-2-yl]amino}cyclohexyl)methyl]-N′-(2-methoxyphenyl)urea]
9 | 50 to 200 | CCOc1ccccc1NC(=O)NC[C@H]1CC[C@@H](Nc2nc(N(C)C)c3ccccc3n2)CC1 [Example 1016, N-[(cis-4-{[4-(dimethylamino)quinazolin-2-yl]amino}cyclohexyl)methyl]-N′-(2-ethoxyphenyl)urea]
10 | 50 to 200 | COc1cccc(NC(=O)NC[C@H]2CC[C@@H](Nc3nc(N(C)C)c4ccccc4n3)CC2)c1 [Example 1017, N-[(cis-4-{[4-(dimethylamino)quinazolin-2-yl]amino}cyclohexyl)methyl]-N′-(3-methoxyphenyl)urea]
11 | > 200 | COc1ccc(NC(=O)NC[C@H]2CC[C@@H](Nc3nc(N(C)C)c4ccccc4n3)CC2)cc1OC [Example 1018, N-(3,4-dimethoxyphenyl)-N′-[(cis-4-{[4-(dimethylamino)quinazolin-2-yl]amino}cyclohexyl)methyl]urea]
12 | 50 to 200 | COc1ccc(NC(=O)NC[C@H]2CC[C@@H](Nc3nc(N(C)C)c4ccccc4n3)CC2)c(OC)c1 [Example 1019, N-(2,4-dimethoxyphenyl)-N′-[(cis-4-{[4-(dimethylamino)quinazolin-2-yl]amino}cyclohexyl)methyl]urea]
13 | 50 to 200 | COc1ccc(OC)c(NC(=O)NC[C@H]2CC[C@@H](Nc3nc(N(C)C)c4ccccc4n3)CC2)c1 [Example 1020, N-(2,5-dimethoxyphenyl)-N′-[(cis-4-{[4-(dimethylamino)quinazolin-2-yl]amino}cyclohexyl)methyl]urea]
14 | 50 to 200 | CN(C)c1nc(N[C@H]2CC[C@@H](CNC(=O)Nc3ccccc3Cl)CC2)nc2ccccc12 [Example 1021, N-(2-chlorophenyl)-N′-[(cis-4-{[4-(dimethylamino)quinazolin-2-yl]amino}cyclohexyl)methyl]urea]
15 | 50 to 200 | CN(C)c1nc(N[C@H]2CC[C@@H](CNC(=O)Nc3cccc(Cl)c3)CC2)nc2ccccc12 [Example 1022, N-(3-chlorophenyl)-N′-[(cis-4-{[4-(dimethylamino)quinazolin-2-yl]amino}cyclohexyl)methyl]urea]
16 | 50 to 200 | CN(C)c1nc(N[C@H]2CC[C@@H](CNC(=O)Nc3ccc(Cl)cc3)CC2)nc2ccccc12 [Example 1023, N-(4-chlorophenyl)-N′-[(cis-4-{[4-(dimethylamino)quinazolin-2-yl]amino}cyclohexyl)methyl]urea]
17 | < 50 | CN(C)c1nc(N[C@H]2CC[C@@H](CNC(=O)Nc3cc(Cl)cc(Cl)c3)CC2)nc2ccccc12 [Example 1024, N-(3,5-dichlorophenyl)-N′-[(cis-4-{[4-(dimethylamino)quinazolin-2-yl]amino}cyclohexyl)methyl]urea]
18 | < 50 | CN(C)c1nc(N[C@H]2CC[C@@H](CNC(=O)Nc3c(Cl)cccc3Cl)CC2)nc2ccccc12 [Example 1025, N-(2,6-dichlorophenyl)-N′-[(cis-4-{[4-(dimethylamino)quinazolin-2-yl]amino}cyclohexyl)methyl]urea]
19 | 50 to 200 | CN(C)c1nc(N[C@H]2CC[C@@H](CNC(=O)Nc3ccc(Cl)c(Cl)c3)CC2)nc2ccccc12 [Example 1026, N-(3,4-dichlorophenyl)-N′-[(cis-4-{[4-(dimethylamino)quinazolin-2-yl]amino}cyclohexyl)methyl]urea]
20 | 50 to 200 | CN(C)c1nc(N[C@H]2CC[C@@H](CNC(=O)Nc3cc(Cl)ccc3Cl)CC2)nc2ccccc12 [Example 1027, N-(2,5-dichlorophenyl)-N′-[(cis-4-{[4-(dimethylamino)quinazolin-2-yl]amino}cyclohexyl)methyl]urea]
21 | < 50 | CN(C)c1nc(N[C@H]2CC[C@@H](CNC(=O)Nc3cccc(Cl)c3Cl)CC2)nc2ccccc12 [Example 1028, N-(2,3-dichlorophenyl)-N′-[(cis-4-{[4-(dimethylamino)quinazolin-2-yl]amino}cyclohexyl)methyl]urea]
22 | 50 to 200 | CN(C)c1nc(N[C@H]2CC[C@@H](CNC(=O)Nc3ccc(Cl)cc3Cl)CC2)nc2ccccc12 [Example 1029, N-(2,4-dichlorophenyl)-N′-[(cis-4-{[4-(dimethylamino)quinazolin-2-yl]amino}cyclohexyl)methyl]urea]
23 | < 50 | CN(C)c1nc(N[C@H]2CC[C@@H](NC(=O)c3cccnc3Oc3ccccc3F)CC2)nc2ccccc12 [Example 1030, N-(cis-4-{[4-(dimethylamino)quinazolin-2-yl]amino}cyclohexyl)-2-(2-fluorophenoxy)nicotinamide]
24 | < 50 | CN(C)c1nc(N[C@H]2CC[C@@H](NC(=O)c3cccnc3Oc3ccccc3Cl)CC2)nc2ccccc12 [Example 1031, 2-(2-chlorophenoxy)-N-(cis-4-{[4-(dimethylamino)quinazolin-2-yl]amino}cyclohexyl)nicotinamide]

Row | SMILES | IC50 [nM]
25 | COc1ccc(NC(=O)N[C@H]2CC[C@@H](Nc3nc(N(C)C)c4ccccc4n3)CC2)cc1OC [Example 1010, N-(3,4-dimethoxyphenyl)-N′-(cis-4-{[4-(dimethylamino)quinazolin-2-yl]amino}cyclohexyl)urea] | < 50
